Data as given in the NIST ThermoML archive (doi:10.1016/j.fluid.2019.05.003).
Numbers after ± are expanded uncertainties.

Experiment: xn = mol fraction of the nth substance listed
Details: 101 kPa, Liquid; for mass density: Vibrating tube method; for viscosity: Falling or rolling sphere viscometry

OCC[n+]1ccccc1.[Br-] [1-(2-hydroxyethyl)pyridinium bromide] + O
Details | mass density [kg/m3] | viscosity [mPa·s]
323.15 K, x1 = 0.022 | 1060.2 ± 0.6 | –
323.15 K, x1 = 0.045 | 1119.1 ± 0.5 | –
323.15 K, x1 = 0.066 | 1164.1 ± 0.5 | –
323.15 K, x1 = 0.085 | 1197.2 ± 0.4 | –
323.15 K, x1 = 0.114 | 1238.9 ± 0.4 | –
323.15 K, x1 = 0.152 | 1281.4 ± 0.4 | –
323.15 K, x1 = 0.195 | 1319 ± 0.4 | –
323.15 K, x1 = 0.226 | 1341 ± 0.4 | –
323.15 K, x1 = 0.261 | 1361.6 ± 0.5 | –
328.15 K, x1 = 0.022 | 1057.8 ± 0.6 | 0.692 ± 0.042
328.15 K, x1 = 0.045 | 1116.2 ± 0.5 | 0.82 ± 0.05
328.15 K, x1 = 0.066 | 1161.1 ± 0.5 | 1.008 ± 0.061
328.15 K, x1 = 0.085 | 1194.2 ± 0.4 | 1.215 ± 0.074
328.15 K, x1 = 0.114 | 1235.9 ± 0.4 | 1.578 ± 0.095
328.15 K, x1 = 0.152 | 1278.3 ± 0.4 | 2.149 ± 0.13
328.15 K, x1 = 0.195 | 1315.9 ± 0.4 | 3.137 ± 0.19
328.15 K, x1 = 0.226 | 1337.8 ± 0.4 | 4.03 ± 0.24
328.15 K, x1 = 0.261 | 1358.4 ± 0.5 | 5.207 ± 0.32
333.15 K, x1 = 0.022 | 1055.5 ± 0.5 | 0.645 ± 0.039
333.15 K, x1 = 0.045 | 1113.1 ± 0.5 | 0.766 ± 0.046
333.15 K, x1 = 0.066 | 1158.1 ± 0.5 | 0.933 ± 0.056
333.15 K, x1 = 0.085 | 1191.2 ± 0.4 | 1.126 ± 0.068
333.15 K, x1 = 0.114 | 1232.8 ± 0.4 | 1.451 ± 0.088
333.15 K, x1 = 0.152 | 1275.2 ± 0.4 | 1.969 ± 0.12
333.15 K, x1 = 0.195 | 1312.7 ± 0.4 | 2.833 ± 0.17
333.15 K, x1 = 0.226 | 1334.6 ± 0.4 | 3.615 ± 0.22
333.15 K, x1 = 0.261 | 1355.2 ± 0.5 | 4.632 ± 0.28
338.15 K, x1 = 0.022 | 1053.3 ± 0.5 | 0.608 ± 0.037
338.15 K, x1 = 0.045 | 1111 ± 0.5 | 0.716 ± 0.043
338.15 K, x1 = 0.066 | 1155.7 ± 0.5 | 0.869 ± 0.053
338.15 K, x1 = 0.085 | 1187.8 ± 0.4 | 1.045 ± 0.063
338.15 K, x1 = 0.114 | 1229.7 ± 0.4 | 1.344 ± 0.081
338.15 K, x1 = 0.152 | 1272 ± 0.4 | 1.809 ± 0.11
338.15 K, x1 = 0.195 | 1309.5 ± 0.4 | 2.599 ± 0.16
338.15 K, x1 = 0.226 | 1331.4 ± 0.4 | 3.284 ± 0.2
338.15 K, x1 = 0.261 | 1352 ± 0.5 | 4.101 ± 0.25
343.15 K, x1 = 0.022 | 1051 ± 0.5 | 0.571 ± 0.035
343.15 K, x1 = 0.045 | 1108.4 ± 0.5 | 0.674 ± 0.041
343.15 K, x1 = 0.066 | 1153 ± 0.5 | 0.816 ± 0.049
343.15 K, x1 = 0.085 | 1184.6 ± 0.4 | 0.976 ± 0.059
343.15 K, x1 = 0.114 | 1226.5 ± 0.4 | 1.257 ± 0.076
343.15 K, x1 = 0.152 | 1268.8 ± 0.4 | 1.696 ± 0.1
343.15 K, x1 = 0.195 | 1306.3 ± 0.4 | 2.37 ± 0.14
343.15 K, x1 = 0.226 | 1328.2 ± 0.4 | 2.945 ± 0.18
343.15 K, x1 = 0.261 | 1348.7 ± 0.5 | 3.732 ± 0.23
348.15 K, x1 = 0.022 | 1048.8 ± 0.5 | 0.538 ± 0.033
348.15 K, x1 = 0.045 | 1105.8 ± 0.5 | 0.634 ± 0.038
348.15 K, x1 = 0.066 | 1150.3 ± 0.5 | 0.763 ± 0.046
348.15 K, x1 = 0.085 | 1181.8 ± 0.4 | 0.911 ± 0.055
348.15 K, x1 = 0.114 | 1223.1 ± 0.4 | 1.197 ± 0.072
348.15 K, x1 = 0.152 | 1265.5 ± 0.4 | 1.605 ± 0.097
348.15 K, x1 = 0.195 | 1303 ± 0.4 | 2.228 ± 0.14
348.15 K, x1 = 0.226 | 1324.9 ± 0.4 | 2.693 ± 0.16
348.15 K, x1 = 0.261 | 1345.5 ± 0.5 | 3.372 ± 0.2
